Test: Solubility studies of alkyl trityl phenyl ethers in solvents at −10° C.
Assay type: physicochemical
Conditions: freezer at −10° C., checked daily for crystallization
Description: Solubility Studies: The solubility properties of the alkyl trityl phenyl ethers were determined by mixing 0.1 grams of test sample with 0.9 grams of solvent. The mixtures were warmed to 60° C. for a few minutes to make homogeneous solutions. The solutions were cooled back to room temperature, and then they were placed into a freezer at −10° C. The solutions were checked daily to see if crystallization had occurred. The solvents evaluated were ADVASOL 200H (mixed aromatics solvent from Advanced Aromatics), ADVASOL 200H ND (naphthalene-depleted mixed aromatics solvent from Advanced Aromatics), cyclohexanone, and o-sec-butyl phenol (OSBP).

[1] = 10 wt.% alkyl trityl phenyl ether in 200H - OSBP (75:25, w:w)
[2] = 10 wt.% alkyl trityl phenyl ether in 200H - cyclohexanone (75:25, w:w)
[3] = 10 wt.% alkyl trityl phenyl ether in 200H ND - OSBP (75:25, w:w)
[4] = 10 wt.% alkyl trityl phenyl ether in 200H ND - cyclohexanone (75:25, w:w)

| Solubility at −10° C., Days [1] | Solubility at −10° C., Days [2] | Solubility at −10° C., Days [3] | Solubility at −10° C., Days [4] | Solubility at −10° C., Days (10 wt.% alkyl trityl phenyl ether in 200H (ADVASOL 200H mixed aromatics solvent)) | Solubility at −10° C., Days (10 wt.% alkyl trityl phenyl ether in 200H ND (naphthalene-depleted mixed aromatics solvent)) | Compound |
| --- | --- | --- | --- | --- | --- | --- |
| Soluble after 102 | Soluble after 102 |  |  |  |  | CCCCCCCCCCOc1ccc(C(c2ccccc2)(c2cccc(C)c2)c2cccc(C)c2)cc1C(C)CC (stereo not drawn) [mmMS4-10] |
| Soluble after 76 days | Soluble after 7 days | Soluble after 76 days | Soluble after 7 days |  |  | CCCCCCOc1ccc(C(c2ccccc2)(c2ccccc2)c2ccc(C)cc2)cc1OCCCCCC [pM3,4-6, ((3,4-Bis(hexyloxy)phenyl)(p-tolyl)methylene)dibenzene] |
| Soluble after 7 days | Soluble after 7 days | Soluble after 7 days | Soluble after 7 days | Soluble after 7 days | Soluble after 7 days | CCCCCCCCCCOc1ccc(C(c2ccccc2)(c2ccccc2)c2ccc(C)cc2)cc1C(C)CC (stereo not drawn) [pMS4-10] |

From patent publication US9587187B2, “Alkyl trityl phenyl ethers” (Rohm and Haas Company, priority 2013, dated 2017)
